Patent US20230339981A1, “KRAS G12D MODULATING COMPOUNDS” (priority 2022, published 2023)

Tests used:
AsPC-1 (KRAS G12D) cells = assay: 3D cell viability assay (spheroids, CellTiter-Glo 3D); type: cell-based; conditions: Homo sapiens, ASPC1, 96 h, AsPC-1 cells, 3D spheroids, 4 days
Protocol: Example C. 3D Cell Viability Assay
Compounds were tested in a 384-well format for their ability to inhibit the viability of AsPC-1 (KRAS G12D) cells in 3D assays. On day 0, 1000 cells/well (80 μL volume per well) in DMEM with 10% FBS, and Penicillin-Streptomycin-Glutamine were plated in 384-well Ultra-Low Attachment Spheroid Microplates (Corning, Catalog #3830) on the BioTEK EL406 liquid dispenser with a 5 μL dispensing cassette (BioTek 7170011). The plates were incubated at 37° C., 5% CO2 for 3 days to allow spheroid formation. On day 3, compounds were serially diluted (1:3) in DMSO. The Biomek FX was used to add 400 nL of test molecule per well. The plates were incubated at 37° C., 5% CO2 for 4 days before addition of CellTiter-Glo 3D (Promega, Catalog #9683) reagent and measurement of luminescence signal. EC50 values were defined as the compound concentration that causes a 50% decrease in luminescence signal and were calculated using a sigmoidal dose-response model to generate curve fits.

GDP-loaded KRAS G12D = GDP-loaded KRAS G12D (Homo sapiens (Human), UniProt P01116, G12D); assay: KRAS G12D (GDP) biochemical assay (TR-FRET probe displacement); type: binding; conditions: 2 hours
Chain of GDP-loaded KRAS G12D (P01116-2 other isoform, or with tags, fused parts or gaps G12D): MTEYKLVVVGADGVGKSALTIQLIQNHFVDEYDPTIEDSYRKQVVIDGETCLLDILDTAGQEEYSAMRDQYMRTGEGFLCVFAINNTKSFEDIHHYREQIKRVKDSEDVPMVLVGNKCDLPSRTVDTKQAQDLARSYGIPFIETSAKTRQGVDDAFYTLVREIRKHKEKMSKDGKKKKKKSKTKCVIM
Method in brief: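 TR-FRET probe displacement: 1:3 DMSO serial dilutions pre-incubated 30 min with GDP-bound KRAS G12D, followed by Eu-streptavidin/probe for 2 h at room temperature (Hepes pH 7.4, NaCl, MgCl2, Tween-20 buffer). IC50 defined as concentration halving TR-FRET ratio, from sigmoidal dose-response fit.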

GP2D (KRAS G12D) cells = assay: 2D cell viability assay (CellTiter-Glo); type: cell-based; conditions: GP2d, 96 h, 4 days
Method in brief: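 Viability was read by CellTiter-Glo after 4 days at 37 °C of 2D culture of KRAS G12D GP2D cells (1000/well, RPMI, 10% FBS) on pre-spotted threefold compound dilutions. EC50 was fitted with a sigmoidal dose-response model as the point of half-maximal luminescence loss.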

| Compound | EC50 (AsPC-1 (KRAS G12D) cells) | IC50 (GDP-loaded KRAS G12D) | EC50 (GP2D (KRAS G12D) cells) |
| --- | --- | --- | --- |
| C#Cc1c(F)ccc2cccc(-c3nc4c5c(nc(OC[C@@]67CCCN6C[C@H](F)C7)nc5c3F)N3C[C@H]5CC[C@H](N5)C3C[C@@H]4C)c12 (stereo in doubt) [Example 93, (4S,5aS,6S,9R)-2-(8-ethynyl-7-fluoronaphthalen-1-yl)-1-fluoro-12-(((2R,7aS)-2-fluorotetrahydro-1H-pyrrolizin-7a(5H)-yl)methoxy)-4-methyl-4,5,5a,6,7,8,9,10-octahydro-3,10a,11,13,14-pentaaza-6,9-methanonaphtho[1,8-ab]heptalene] | 82 nM | 2.5 nM | 26.6 nM |
| C#Cc1c(F)ccc2cc(O)cc(-c3nc4c5c(nc(OC[C@@]67CCCN6C[C@H](F)C7)nc5c3F)N3C[C@H]5CC[C@H](N5)C3C[C@@H]4C)c12 (stereo in doubt) [Example 94, 5-ethynyl-6-fluoro-4-((4S,5aS,6S,9R)-1-fluoro-12-(((2R,7aS)-2-fluorotetrahydro-1H-pyrrolizin-7a(5H)-yl)methoxy)-4-methyl-4,5,5a,6,7,8,9,10-octahydro-3,10a,11,13,14-pentaaza-6,9-methanonaphtho[1,8-ab]heptalen-2-yl)naphthalen-2-ol] | 2.2 nM | 0.1 nM | 0.6 nM |
| C#Cc1c(F)ccc2cc(O)cc(-c3nc4c5c(nc(OC[C@@]67CCCN6C[C@H](F)C7)nc5c3F)N3C[C@H]5CC[C@H](N5)C3C[C@H]4C)c12 (stereo in doubt) [Example 96, 5-ethynyl-6-fluoro-4-((4R,5aS,6S,9R)-1-fluoro-12-(((2R,7aS)-2-fluorotetrahydro-1H-pyrrolizin-7a(5H)-yl)methoxy)-4-methyl-4,5,5a,6,7,8,9,10-octahydro-3,10a,11,13,14-pentaaza-6,9-methanonaphtho[1,8-ab]heptalen-2-yl)naphthalen-2-ol] | 1.9 nM | 0.3 nM | 0.5 nM |
| C#Cc1c(F)ccc2cc(O)cc(-c3nc4c5c(nc(OC[C@@]67CCCN6C[C@@H](OC(C(F)(F)F)(C(F)(F)F)C(F)(F)F)C7)nc5c3F)N3C[C@H]5CC[C@H](N5)[C@H]3CC4)c12 (stereo in doubt) [Example 134, 5-ethynyl-6-fluoro-4-((5aR,6S,9R)-1-fluoro-12-((cis-2-((1,1,1,3,3,3-hexafluoro-2-(trifluoromethyl)propan-2-yl)oxy)tetrahydro-1H-pyrrolizin-7a(5H)-yl)methoxy)-4,5,5a,6,7,8,9,10-octahydro-3,10a,11,13,14-pentaaza-6,9-methanonaphtho[1,8-ab]heptalen-2-yl)naphthalen-2-ol] | 31 nM | 0.5 nM | 2.2 nM |
| C#Cc1c(F)ccc2cc(O)cc(-c3nc4c5c(nc(OC[C@]67CCCN6C[C@@H](OC(F)(F)F)C7)nc5c3F)N3C[C@H]5CC[C@H](N5)[C@H]3CC4)c12 (stereo in doubt) [Example 141, 5-ethynyl-6-fluoro-4-((5aR,6S,9R)-1-fluoro-12-((trans-2-(trifluoromethoxy)tetrahydro-1H-pyrrolizin-7a(5H)-yl)methoxy)-4,5,5a,6,7,8,9,10-octahydro-3,10a,11,13,14-pentaaza-6,9-methanonaphtho[1,8-ab]heptalen-2-yl)naphthalen-2-ol] | 3.7 nM | 0.2 nM | 0.4 nM |
| Oc1cc(-c2nc3c4c(nc(OC[C@@]56CCCN5C[C@H](F)C6)nc4c2F)N2C[C@H]4CC[C@H](N4)[C@H]2CO3)c2c(F)c(F)ccc2c1 [Example 1, 5,6-difluoro-4-((5aS,6S,9R)-1-fluoro-12-(((2R,7aS)-2-fluorotetrahydro-1H-pyrrolizin-7a(5H)-yl)methoxy)-5a,6,7,8,9,10-hexahydro-5H-4-oxa-3,10a,11,13,14-pentaaza-6,9-methanonaphtho[1,8-ab]heptalen-2-yl)naphthalen-2-ol] | 170 nM | 0.5 nM | 19 nM |
| C#Cc1c(F)ccc2cc(O)cc(-c3nc4c5c(nc(OC[C@@]67CCCN6C[C@H](F)C7)nc5c3F)N3C[C@H]5CC[C@H](N5)[C@H]3CO4)c12 [Example 2, 5-ethynyl-6-fluoro-4-((5aS,6S,9R)-1-fluoro-12-(((2R,7aS)-2-fluorotetrahydro-1H-pyrrolizin-7a(5H)-yl)methoxy)-5a,6,7,8,9,1O-hexahydro-5H-4-oxa-3,10a,11,13,14-pentaaza-6,9-methanonaphtho[1,8-ab]heptalen-2-yl)naphthalen-2-ol] | 42 nM | 0.2 nM | 6 nM |
| Oc1cc(-c2nc3c4c(nc(OC[C@@]56CCCN5C[C@H](F)C6)nc4c2F)N2C[C@H]4CC[C@H](N4)[C@H]2CO3)c2c(OC(F)(F)F)cccc2c1 [Example 3, 4-((5aS,6S,9R)-1-fluoro-12-(((2R,7aS)-2-fluorotetrahydro-1H-pyrrolizin-7a(5H)-yl)methoxy)-5a,6,7,8,9,10-hexahydro-5H-4-oxa-3,10a,11,13,14-pentaaza-6,9-methanonaphtho[1,8-ab]heptalen-2-yl)-5-(trifluoromethoxy)naphthalen-2-ol] | 160 nM | 2 nM | 24 nM |
| C#Cc1c(F)ccc2cccc(-c3nc4c5c(nc(OC[C@@]67CCCN6C[C@H](F)C7)nc5c3F)N3C[C@H]5CC[C@H](N5)[C@H]3CO4)c12 [Example 4, (5aS,6S,9R)-2-(8-ethynyl-7-fluoronaphthalen-1-yl)-1-fluoro-12-(((2R,7aS)-2-fluorotetrahydro-1H-pyrrolizin-7a(5H)-yl)methoxy)-5a,6,7,8,9,10-hexahydro-5H-4-oxa-3,10a,11,13,14-pentaaza-6,9-methanonaphtho[1,8-ab]heptalene] | 92 nM | 4 nM | 45 nM |
| Oc1cc(-c2nc3c4c(nc(OC[C@@]56CCCN5C[C@H](F)C6)nc4c2F)N2C[C@H]4CC[C@H](N4)[C@H]2CO3)c2c(Cl)c(F)ccc2c1 [Example 9, 5-chloro-6-fluoro-4-((5aS,6S,9R)-1-fluoro-12-(((2R,7aS)-2-fluorotetrahydro-1H-pyrrolizin-7a(5H)-yl)methoxy)-5a,6,7,8,9,10-hexahydro-5H-4-oxa-3,10a,11,13,14-pentaaza-6,9-methanonaphtho[1,8-ab]heptalen-2-yl)naphthalen-2-ol] | 77 nM | 0.5 nM | 20 nM |
| C#Cc1c(F)ccc2cc(O)cc(-c3nc4c5c(nc(OC[C@]67CC(=C)CN6C[C@H](F)C7)nc5c3F)N3C[C@H]5CC[C@H](N5)[C@H]3CO4)c12 [Example 13, 5-ethynyl-6-fluoro-4-((5aS,6S,9R)-1-fluoro-12-(((2R,7aR)-2-fluoro-6-methylenetetrahydro-1H-pyrrolizin-7a(5H)-yl)methoxy)-5a,6,7,8,9,10-hexahydro-5H-4-oxa-3,10a,11,13,14-pentaaza-6,9-methanonaphtho[1,8-ab]heptalen-2-yl)naphthalen-2-ol] | 17 nM | 0.4 nM | 2 nM |
| Oc1cc(-c2nc3c4c(nc(OC[C@@]56CCCN5C[C@H](F)C6)nc4c2F)N2C[C@H]4CC[C@H](N4)[C@H]2CO3)c2c(Cl)cccc2c1 [Example 17, 5-chloro-4-((5aS,6S,9R)-1-fluoro-12-(((2R,7aS)-2-fluorotetrahydro-1H-pyrrolizin-7a(5H)-yl)methoxy)-5a,6,7,8,9,10-hexahydro-5H-4-oxa-3,10a,11,13,14-pentaaza-6,9-methanonaphtho[1,8-ab]heptalen-2-yl)naphthalen-2-ol] | 180 nM | 0.4 nM | 49 nM |
| Oc1cc(-c2nc3c4c(nc(OC[C@@]56CCCN5C[C@H](F)C6)nc4c2F)N2C[C@H]4CC[C@H](N4)[C@H]2CO3)c2ccccc2c1 [Example 20, 4-((5aS,6S,9R)-1-fluoro-12-(((2R,7aS)-2-fluorotetrahydro-1H-pyrrolizin-7a(5H)-yl)methoxy)-5a,6,7,8,9,10-hexahydro-5H-4-oxa-3,10a,11,13,14-pentaaza-6,9-methanonaphtho[1,8-ab]heptalen-2-yl)naphthalen-2-ol] | > 1000 nM | 7 nM | 210 nM |
| C#Cc1c(F)ccc2cc(O)cc(-c3nc4c5c(nc(OC[C@@]67CCCN6C[C@H](F)C7)nc5c3F)N3C[C@H]5CC[C@H](N5)[C@H]3CC4)c12 [Example 22, 5-ethynyl-6-fluoro-4-((5aR,6S,9R)-1-fluoro-12-(((2R,7aS)-2-fluorotetrahydro-1H-pyrrolizin-7a(5H)-yl)methoxy)-4,5,5a,6,7,8,9,10-octahydro-3,10a,11,13,14-pentaaza-6,9-methanonaphtho[1,8-ab]heptalen-2-yl)naphthalen-2-ol] | 2 nM | 0.1 nM | 0.6 nM |
